Reference: patent publication US20250177340A1, “Tartaric Acid Analogs and Uses Thereof” (Lapix Therapeutics, Inc., priority 2021, published 2025)

Experiments:
murine CD8+ T cells = experiment: Murine CD8+ T-cell proliferation (CFSE), Example 6; type: cell-based, C57BL/6 mice; conditions: 30 mM, ConA 10 μg/ml
Method: Preparation of test materials: TTA, compound A and compound B were formulated in RPMI media under aseptic conditions. The pH was adjusted to approximately 7.5 before dosing cells.
Tissue culture and dosing: Splenocytes of C57BL/6 mice were stained with CFSE and prepared, cultured, and dosed. Cells were seeded at 1×10^5 cells/well in a 96-well round-bottomed plate.
Controls: Two controls were used. A negative control dosed with 10 ng/ml IL2 was used, and a positive control dosed with 20 μg/ml ConA and 10 ng/ml IL2 was used.
Treatment: After ConA stimulation (10 μg/ml), cells were dosed with 30 mM compound A, B or C with or without 0.1 mM 30:70 PS:DMPC liposomes. All wells were dosed with 10 ng/ml of IL-2.

Granzyme B and IFN-γ = experiment: Dose-response of GranzymeB/IFN-γ double positivity in murine CD8+ T-cells, Example 9; type: cell-based, C57BL/6 mice; conditions: Mus musculus, T-cell; for Emax: FIG. 4, 5-parameter fit, read-out: maximal response (GzmB/IFN-γ double positive CD8+ T-cells)
Method: A dose-response analysis of compounds B-E in murine CD8+ T-cells was conducted to evaluate the effect of dose on GranzymeB/IFN-γ double positivity.
Compound C, D and E were first dissolved in a small volume of DMSO before diluting to the final desired concentration.
Splenocytes from naïve C57BL/6 mice were stained with CFSE, prepared, cultured, and dosed. Cells were seeded at 2×10^5 cells/well. Negative control was dosed with 10 ng/ml IL-2. After ConA stimulation (10 μg/ml), cells were dosed with log 3 dilution of each compound from 3×10^−9 to 30 µM in triplicates. All wells were dosed with 10 ng/ml of IL-2.
Flow cytometer analysis was performed to assess percent CD8+ T-cells and percent activation by double staining for Granzyme B (GzmB) and IFN-γ as described in Example 7. Concentration versus response curve was fitted to a 4- or 5-parameter log-logistic model using the “dre” package in “R”. Both EC50 and EC90 were obtained by model fitting.

PD-1 = experiment: Percent PD-1+/CD8+ T-cells in splenocytes after a single dose, melanoma murine model; type: in vivo, mice
Method: The pharmacodynamic (PD) effects of a single IV dose of Compound B in a melanoma murine model were evaluated. B16F10 melanoma cells were grown in RPMI 1640 media supplemented with 10% FBS and antibiotics (penicillin/streptomycin) using T75 flasks. When cells reached 70-80% confluency, they were treated with 3 ml of 0.25% Trypsin/EDTA. Afterward, detached cells were harvested. A single-cell suspension was prepared in PBS. An IV injection of 10^5 cells in mice marked day −3 of the experiment.
Animals were housed four per cage, and had access to food and water ad libitum. Compound B was dissolved in sterile PBS, and pH was adjusted to approximately 7.5. Sterile PBS served as control.
Three days after the IV injection of melanoma cells, animals in the baseline group (n=3) were sacrificed and their spleens were collected for KLRG-1, CTLA-4, and PD-1 analysis. At each predetermined time-point (24, 48, and 120 hours after dosing) three animals from each group were sacrificed for splenocyte analysis of KLRG-1, CTLA-4, and PD-1 expression levels, and expression levels were compared to baseline.
Spleens collected for splenocyte analysis were prepared into a single-cell suspension for cellular phenotyping by flow cytometry. Cells were stained and gated for CD8. Percent KLRG-1+, CTLA-4+, and PD-1+ CD8+ T-cells were evaluated using flow cytometry.
The PD effects of a single IV dose of Compound C were evaluated in a melanoma murine model conducted as described in Example 10. […] This study also evaluated whether Compound C was pharmacodynamically active orally.
In a prior study, Compound C was dosed at 1 mg IV QD for seven days. […] A single PO dose was chosen to confirm oral activity of Compound C. Compound C was dissolved in DMSO, and then diluted in sterile PBS. pH was adjusted to approximately 7.5.
The oral and intravenous PD effects of a single dose of Compound E were evaluated in a melanoma murine model conducted as described in Example 10.
Compound E was dissolved in DMSO, and then diluted in sterile PBS. pH was adjusted to approximately 7.5.

B16F10 melanoma cells = experiment: Tumor growth inhibition and overall survival, SC B16F10 melanoma (Example 13); type: in vivo, mice; conditions: Compound B 4 mg/mouse PO QD x7, Compound C 2.5 mg/mouse IV QD; for animals showing any tumor growth: by day 14; for animals with measurable tumors: by day 16; for tumor volume versus placebo group: duration of the study
Method: This study was designed to evaluate the effects of Compound B and Compound C on tumor growth and the overall survival of animals implanted SC with 10^5 melanoma cells. Furthermore, ex vivo analysis of splenocytes at the end of dosing was used to evaluate change in the T-cell population and function. FIG. 8A is a diagram of the study design.
(§1) Animals were housed four per cage and had access to food and water ad libitum. Compound B was dissolved in sterile PBS, and pH was adjusted to approximately 7.5. Compound C was first dissolved in DMSO before diluting in sterile PBS. Sterile PBS was used as a control. Compound B was dosed at 4 mg/mouse PO QD. This dose was expected to result in an exposure equivalent to a 1 mg/mouse IV dose. Compound C was dosed at 2.5 mg/mouse IV.
(§2) B16F10 melanoma cells were grown in RPMI 1640 media supplemented with 10% FBS and antibiotics (penicillin/streptomycin) using T75 flasks. When cells reached 70-80% confluency, they were treated with 3 ml of 0.25% trypsin/EDTA. Detached cells were harvested. A single-cell suspension was prepared in PBS. A dorsal SC injection of 10^5 cells in mice marked day 0 of the experiment. Animals were monitored daily, and tumors were measured twice a week.
For tumor growth inhibition, animals were divided into 3 groups. The control group received an IV injection of PBS to match the start time, dosing volume, and dosing frequency of the Compound C treatment group. The treatment group received 100 μl of 4 mg/mouse PO QD of Compound B for 7 days starting at day 7 after tumor implantation, or 2.5 mg/mouse IV QD of Compound C. The endpoint was reached when the tumor reached 1 cm^3. Tumor volume was calculated using the following formula:
Tumor volume=length×width×½ width
The mice were also monitored for survival, and were euthanized when the tumor size reached the predefined endpoint of 1 cm^3.

[1] = Body weight change in murine melanoma model (Example 13); type: in vivo, mice; conditions: Compound B 4 mg/mouse PO QD x7, Compound C 2.5 mg/mouse IV QD
Method: as §1, §2

| SMILES | percent of CD8+ T-cell proliferation (murine CD8+ T cells; in absence of PS) [%] | EC50 (Granzyme B and IFN-γ; 4-parameter model) [nM] | EC90 (Granzyme B and IFN-γ; 4-parameter model) [nM] | EC50 (Granzyme B and IFN-γ; 5-parameter model) [nM] | EC90 (Granzyme B and IFN-γ; 5-parameter model) [nM] | Emax (Granzyme B and IFN-γ) [%] | animals did not survive the study (B16F10 melanoma cells) | animals survived tumor-free for the duration of the study (B16F10 melanoma cells) | animals survived with a tumor (to day 28) (B16F10 melanoma cells) | survival (B16F10 melanoma cells) [%] | animals showing any tumor growth (B16F10 melanoma cells) | animals with measurable tumors (B16F10 melanoma cells) | tumor volume versus placebo group (B16F10 melanoma cells) | greatest measured weight loss [1] [%] | other results |
| --- | --- | --- | --- | --- | --- | --- | --- | --- | --- | --- | --- | --- | --- | --- | --- |
| O=C(O)[C@H](O)[C@@H](O)C(=O)OCCCc1ccccc1 [Compound B, (2R,3R)-2,3-dihydroxy-4-oxo-4-(3-phenylpropoxy)butanoic acid] | 78.3 | 9.8 | 950 | 11 | 3000 | ~60 | 3/7 | 3/7 | 1/7 | 40 | 3/7 | 3 | statistically lower | 3 | PD-1+/CD8+ T-cells, mean (PD-1; 0.14 mg/mouse IV single dose, 24 h): 38.6%; PD-1+/CD8+ T-cells, mean (PD-1; 0.14 mg/mouse IV single dose, 48 h): 32.5%; PD-1+/CD8+ T-cells, mean (PD-1; 0.14 mg/mouse IV single dose, 120 h): 59.7%; PD-1+/CD8+ T-cells, mean (PD-1; 0.7 mg/mouse IV single dose, 24 h): 44.5%; PD-1+/CD8+ T-cells, mean (PD-1; 0.7 mg/mouse IV single dose, 48 h): 26.7%; PD-1+/CD8+ T-cells, mean (PD-1; 0.7 mg/mouse IV single dose, 120 h): 58.2%; reduction in PD-1+/CD8+ T-cell compared to control (PD-1; 1.2 mg group, day 5): 41.8%; PD-1+/CD8+ T-cells, mean (PD-1; 1.4 mg/mouse IV single dose, 24 h): 42.3%; PD-1+/CD8+ T-cells, mean (PD-1; 1.4 mg/mouse IV single dose, 48 h): 30.4%; PD-1+/CD8+ T-cells, mean (PD-1; 1.4 mg/mouse IV single dose, 120 h): 34.7% |
| O=C(O)[C@H](O)[C@@H](O)C(=O)OCCC(c1ccccc1)c1ccccc1 [Compound C, (2R,3R)-4-(3,3-diphenylpropoxy)-2,3-dihydroxy-4-oxobutanoic acid] | 84.5 | 43 | 29000 | 42 | 28000 | ~60 | 2/8 | 5/8 | 1/8 | 80 | 0/8 | 0 | statistically lower | 1.5 | percent of CD8+ T-cell proliferation (murine CD8+ T cells; in the presence of 0.1 mM PS): 55.5%; PD-1+/CD8+ T-cells, mean (PD-1; 0.025 mg/mouse IV single dose, 24 h): 35%; PD-1+/CD8+ T-cells, mean (PD-1; 0.1 mg/mouse IV single dose, 24 h): 34%; PD-1+/CD8+ T-cells, mean (PD-1; 0.25 mg/mouse IV single dose, 24 h): 27%; PD-1+/CD8+ T-cells, mean (PD-1; 1 mg/mouse IV single dose, 24 h): 26%; PD-1+/CD8+ T-cells, mean (PD-1; 2.5 mg/mouse po single dose, 24 h): 33%; decrease in PD-1+/CD8+ T-cells compared to baseline (PD-1; 0.25- and 1-mg IV groups): approximately 20%; decrease in PD-1+/CD8+ T-cells compared to time match control (PD-1; 0.25- and 1-mg IV groups): approximately 30%; change in PD-1+/CD8+ T-cells compared to baseline or control (PD-1; remaining groups (0.025, 0.1 mg IV, 2.5 mg PO)): No meaningful changes |
